Results on 3 molecules are retold here after US11384366B2, “Lentiviral vector capable of directly reflecting type I interferon response, preparation method thereof, and applications thereof” (Fantasia Biopharma (Zhejiang) Co. Ltd., priority 2016, dated 2022).

For assay [1], the system named is IRF5 dimers. In words: IRF5 dimer luciferase signal in THP-1 (IRF5-BiLC) under different stimulations. In kind it is cell-based, human. Conditions: FIG. 2b.
Assay [2] concerns IRF7 dimers. In words: IRF7 dimer luciferase signal in THP-1 (IRF7-BiLC) under different stimulations. In kind it is cell-based, human. The note with it: FIG. 2c.
Assay [3] has as its system IRF3 dimers. The assay can be described thus: IRF3 dimer luciferase signal in THP-1 (IRF3-BiLC) under different stimulations. In kind it is cell-based, human. Conditions: FIG. 2a.
The subject of assay [4] is IRF3-BiLC. In words: Effect of CHX on IRF3-BiLC in THP-1 (IRF3-BiLC) cells. The assay is classed as cell-based, human. Conditions: CHX 100 ng/mL for 10 h, with or without polydA:dT stimulation; normalized to untreated groups; FIG. 5. As to the method:
(§1) THP-1-Dual and THP-1 (IRF3-BiLC) cells were plated at a concentration of 1000,000 cells per mL in a 24-well plate. 4 groups were arranged for THP-1-Dual and THP-1 cells respectively, resulting in a total of 8 groups. After 12 hours, for THP-1-Dual cells, two groups of cells were transfected with Lipo2000 and stimulated with […] of polydA:dT, and the other two groups were not treated. The same treatment was performed for THP-1 (IRF3-BiLC). 4 hours after transfection, for the 2 groups of THP-1-Dual cells that were transfected and stimulated with polydA:dT, CHX with a final concentration of 100 ng/mL was added into one group. For the 2 groups of THP-1-Dual cells that were not treated, CHX with a final concentration of 100 ng/mL was added into one group. The other two groups were not treated. The same treatment was performed for THP-1 (IRF3-BiLC).
(§2) After 10 h of CHX treatment, for THP-1-Dual cells, 40 μL of supernatant was taken respectively to detect the luciferase activity. For THP-1 (IRF3-BiLC), 80 μL of Renilla luciferase lysate (purchased from Promega, E2820) was used to lyse on ice for 10 min. […] 20 μL of Renilla luciferase substrate (purchased from Promega, E2820) was added into each well, and the luciferase activity was detected by a microplate reader (purchased from Bio-Tek, Synergy H1).
(§3) The detected values of luciferase were normalized with regard to the untreated groups.

The test system of assay [5] is ISRE-Luc. The assay can be described thus: Effect of CHX on ISRE-Luc in THP-1-Dual cells. The assay is classed as cell-based. The note with it: CHX 100 ng/mL for 10 h, with or without polydA:dT stimulation; normalized to untreated groups; FIG. 6. The protocol: as §1, §2, §3

Regarding TNFa, the “signals of the IRF5 dimers (luciferase activity)” value in assay [1] was “cannot cause the formation of the signals”. The “signals of the IRF7 dimers (luciferase activity)” value in assay [2] was “cannot cause the formation of the signals”. The “signals of the IRF3 dimers (luciferase activity)” value in assay [3] was “cannot cause the formation of the signals”.
As for `C[C@@H]1C[C@@H]([C@H](O)CC2CC(=O)NC(=O)C2)C(=O)[C@@H](C)C1` [CHX], the “effect of CHX on IRF3-BiLC luciferase activity” value in assay [4] is on record as “capable of reflecting the intracellular type I interferon response reaction”. Also, in assay [5], the “effect of CHX on ISRE-Luc luciferase activity” value is “affected significantly”.
“IL-1B: stimulus used on the THP-1 BiLC reporter cell lines”: in assay [1], the “signals of the IRF5 dimers (luciferase activity)” value was “cannot cause the formation of the signals”. Moreover, the “signals of the IRF7 dimers (luciferase activity)” value in assay [2] is recorded as “cannot cause the formation of the signals”. Also, in assay [3], the “signals of the IRF3 dimers (luciferase activity)” value is reported as “cannot cause the formation of the signals”.
